From ChEMBL document CHEMBL1159171, “Symmetry-based HIV protease inhibitors containing a hydroxy bis-urea isostere” (Bioorg Med Chem Lett, 1994)

These compounds were tested against Human immunodeficiency virus type 1 protease (Human immunodeficiency virus 1) (UniProt Q72874) (assay: In vitro inhibitory activity against HIV-1 protease at a concentration of 10 uM).

Point of comparison: `CC(C)(C)OC(=O)NC(=O)N(Cc1ccccc1)CC(O)CN(Cc1ccccc1)C(=O)NC(=O)OC(C)(C)C`, inhibition 28%. Against it:
- CON[C@@H](C(=O)NC(=O)N(Cc1ccccc1)CC(O)CN(Cc1ccccc1)C(=O)NC(=O)[C@H](NOC)C(C)C)C(C)C (single isomer, unassigned) — lower, 16%
- CC(C)(C)NC(=O)N(Cc1ccccc1O)CC(O)CN(Cc1ccccc1O)C(=O)NC(C)(C)C — lower, 11%
- CCCNC(=O)N(Cc1ccccc1)CC(O)CN(Cc1ccccc1)C(=O)NCCC — higher, 38%
- CC(C)(C)N(Cc1ccccc1)C(=O)NCC(O)CNC(=O)N(Cc1ccccc1)C(C)(C)C — lower, 17.5%
- CC(C)(C)NC(=O)N(Cc1cccc(O)c1O)CC(O)CN(Cc1cccc(O)c1O)C(=O)NC(C)(C)C — higher, 67%
- CC(C)(C)NC(=O)N(Cc1ccccc1)CC(O)CN(Cc1ccccc1)C(=O)NC(C)(C)C — higher, 50%
- CC(C)(C)NC(=O)NCC(O)CNC(=O)NC(C)(C)C — lower, 8%
- CC(C)CN(CC(O)CN(CC(C)C)C(=O)NC(C)(C)C)C(=O)NC(C)(C)C — lower, 25%
- CC(C)(C)NC(=O)N(Cc1cccc(O)c1)CC(O)CN(Cc1cccc(O)c1)C(=O)NC(C)(C)C — higher, 67%
- O=C(Nc1ccccc1)N(Cc1ccccc1)CC(O)CN(Cc1ccccc1)C(=O)Nc1ccccc1 — lower, 16%
- CON[C@H](C(=O)NC(=O)N(Cc1ccccc1)CC(O)CN(Cc1ccccc1)C(=O)NC(=O)[C@@H](NOC)C(C)C)C(C)C — higher, 36%
- CC(C)(C)NC(=O)N(Cc1ccccc1)C[C@H](O)[C@@H](O)CN(Cc1ccccc1)C(=O)NC(C)(C)C — higher, 78%
- O=C(NCc1ccccc1)N(Cc1ccccc1)CC(O)CN(Cc1ccccc1)C(=O)NCc1ccccc1 — lower, 19%
- CC(C)[C@H](NC(=O)OCc1ccccc1)C(=O)N[C@@H](Cc1ccccc1)C(O)[C@H](Cc1ccccc1)NC(=O)[C@@H](NC(=O)OCc1ccccc1)C(C)C — lower, 3%
